Laboratory results: patent US12624017B2, “Salt form of isoquinolinone type compound as rock inhibitor and preparation method therefor” (GUANGZHOU OCUSUN OPHTHALMIC BIOTECHNOLOGY CO., LTD., priority 2020, dated 2026)

Assay: Pharmacokinetic test in aqueous humor after eye drops
Type: in vivo, New Zealand white rabbits
Settings: eye drops 0.5 mg/eye
Source text: The compound was a prodrug molecule containing an ester functional group, which can be hydrolyzed into an active drug molecule (parent drug) under the action of abundant ester hydrolase in the eye tissue when administered with eye drops. In this experiment, the production rate of the active pharmaceutical ingredients in vivo and the exposure amount of the active pharmaceutical ingredients were detected.
Male New Zealand white rabbits, aged 3 to 6 months, weighted 2.0 to 5.0 kg, purchased from Pizhou Oriental Breeding Co., Ltd.
The used solvent was 1.2% hydroxypropyl methylcellulose E5/20.5% poloxamer P407/1.6% poloxamer P188.
The dosage of eye drops was 0.5 mg/eye, administrated in both eyes. Aqueous humor samples were collected at 0.25 h, 0.5 h, 2 h, 4 h, 8 h, and 24 h after administration. All samples were quantitatively detected by liquid chromatography coupled with mass spectrometry-mass spectrometry in the aqueous humor of the experimental animals. The measured concentration values were calculated by WinNonlin non-compartment model according to the concentration-time data of aqueous humor, such as half-life, peak concentration, peak time, unit exposure amount of aqueous humor, etc.

With Cc1ccc(C(=O)OCn2cc(C)c3c(S(=O)(=O)N4CC[C@H](N)C4)cccc3c2=O)c(C)c1 [Compound of formula (I)] the “Exposure amount of the active drug (conclusion)” value was “significantly increased”.
